Test results published in patent US20200291355A1, “ENGINEERED ERYTHROID CELLS INCLUDING LOADABLE ANTIGEN-PRESENTING POLYPEPTIDES AND METHODS OF USE” (Rubius Therapeutics, Inc., priority 2019, published 2020).

Test system: wt HLA-A2 or ds HLA-A2 antigen-presenting polypeptide (HLA*02:01)
Assay: Binding kinetics of TAMRA-labeled HPV E7 antigenic polypeptides onto engineered enucleated erythroid cells (flow cytometry)
Parameters: species or system human
Conditions: 10 ng/mL, about 90 minutes, 4° C., RT and 37° C.
Method: To examine the antigenic polypeptide loading kinetics of loadable antigen-presenting polypeptides, the following experiment was performed.

**Q.** Which “Loading rate of fluorescent peptide compared with HPV E7-GGK” value (onto cells including ds HLA-A2) does the source give for YMLDLQPKT [HPV E7-E18K] here?
**A.** more rapidly

**Q.** What about the “Loading rate of fluorescent peptide compared with HPV E7-GGK” value (onto cells including wt HLA-A2) of the same sequence?
**A.** more rapidly
